Source: patent US11253531B2, “Lipid supplements for reducing nerve action potentials” (Nutritional Therapeutics, Inc., priority 2011, dated 2022)

Tested on: dorsal root ganglia neurons
Experiment: Field stimulation of cultured neurons, membrane potential by di8ANEPPS fluorescence
Assay type: cell-based, rat
Conditions: caffeine added to NTFL
Source text: The procedure below details a study performed on one type of cultured nerve cells, namely dorsal root ganglia neurons, using a 10% solution of glycerolphospholipids in combination with inulin (NTFL).
The cultured cells were then exposed to an aqueous solution of the lipid supplement comprising glycerolphospholipids in combination with inulin, referred to as NTFL nanomicelles.
This was used as an indicator of membrane potential instead of microelectrodes because patching these neurons or the use of microelectrodes can be difficult in these studies in the presence of the NTFL nanomicellles solutions.
To perform the comparison, electrodes were applied to the bath containing the cultured neurons and field stimulation was provided by passed current through the bath. This caused depolarization of the nerve cells resulting in fluorescence of the di8ANEPPS.

Cn1c(=O)c2c(ncn2C)n(C)c1=O [caffeine] was tested, and the “effect on nerve conduction” value was “did not appear to have an effect on nerve conduction”.
